Source: PMC3777193, “Diaryl- and triaryl-pyrrole derivatives: inhibitors of the MDM2–p53 and MDMX–p53 protein–protein interactions” (Medchemcomm, 2013)
Read-outs that look alike come from different tables or passages of the source.

What was measured:
[1] = tested on: A2780CP70 cells; format: cell-based; details: A2780 CP70 (p53 mutant), 0.1, 0.2 and 5 μM, 4 h
[2] = target: MDM2–p53 (Homo sapiens, UniProt Q00987); test: MDM2–p53 ELISA protein–protein binding assay; details: for fold loss of potency against MDM2–p53: N-alkyl malonamides compared with 10c
Sequence of MDM2–p53 (Q00987 whole entry): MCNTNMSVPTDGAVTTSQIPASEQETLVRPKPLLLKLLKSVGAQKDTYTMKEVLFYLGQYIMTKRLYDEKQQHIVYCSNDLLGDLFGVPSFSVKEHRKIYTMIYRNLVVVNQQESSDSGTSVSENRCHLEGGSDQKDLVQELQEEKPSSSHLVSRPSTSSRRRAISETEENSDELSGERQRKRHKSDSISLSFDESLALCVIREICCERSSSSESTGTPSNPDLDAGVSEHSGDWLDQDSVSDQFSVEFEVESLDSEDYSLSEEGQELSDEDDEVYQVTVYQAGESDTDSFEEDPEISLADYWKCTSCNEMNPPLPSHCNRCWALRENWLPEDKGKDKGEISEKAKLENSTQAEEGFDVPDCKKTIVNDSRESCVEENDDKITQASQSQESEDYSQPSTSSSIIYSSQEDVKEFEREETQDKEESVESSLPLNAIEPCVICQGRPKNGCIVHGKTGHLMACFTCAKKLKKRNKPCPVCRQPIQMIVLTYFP

[3] = tested on: HCT116; test: Growth inhibitory activity, HCT116 (Table S3); format: cell-based; details: Homo sapiens, HCT-116, read-out: GI50 HCT116
From the text: (§1) (2 pictures or pasted objects on this page, not shown here)

[4] = tested on: SJSA-1 cells; format: cell-based; details: SJSA-1 (MDM2 amplified, p53wt), 5 μM, 4 h
[5] = Growth inhibitory activity, A2708 (Table S3); format: cell-based; details: read-out: GI50 A2708
From the text: as §1

[6] = tested on: A2780-CP70; test: Growth inhibitory activity, A2780-CP70 (Table S3); format: cell-based; details: A2780/CP70, read-out: GI50 A2780-CP70
From the text: as §1

[7] = tested on: HCT116 p53(-/-); test: Growth inhibitory activity, HCT116 p53(-/-) (Table S3); format: cell-based; details: Homo sapiens, HCT-116, read-out: GI50 HCT116 p53(-/-)
From the text: as §1

[8] = tested on: SJSA-1; test: Growth inhibitory activity, SJSA-1; details: Homo sapiens, SJSA-1, read-out: GI50 SJSA-1
Method: (§2) Growth inhibitory activity was determined for selected pyrroles in a panel of cell lines with defined MDM2, MDMX and p53 status (Table 5).

[9] = target: T1, MDMX–p53 (Homo sapiens, UniProt O15151); test: MDMX–p53 ELISA binding assay
T1 construct: host or cells: in vitro coupled T7 transcription and rabbit reticulocyte lysate translation
T1 sequence (O15151 1-490): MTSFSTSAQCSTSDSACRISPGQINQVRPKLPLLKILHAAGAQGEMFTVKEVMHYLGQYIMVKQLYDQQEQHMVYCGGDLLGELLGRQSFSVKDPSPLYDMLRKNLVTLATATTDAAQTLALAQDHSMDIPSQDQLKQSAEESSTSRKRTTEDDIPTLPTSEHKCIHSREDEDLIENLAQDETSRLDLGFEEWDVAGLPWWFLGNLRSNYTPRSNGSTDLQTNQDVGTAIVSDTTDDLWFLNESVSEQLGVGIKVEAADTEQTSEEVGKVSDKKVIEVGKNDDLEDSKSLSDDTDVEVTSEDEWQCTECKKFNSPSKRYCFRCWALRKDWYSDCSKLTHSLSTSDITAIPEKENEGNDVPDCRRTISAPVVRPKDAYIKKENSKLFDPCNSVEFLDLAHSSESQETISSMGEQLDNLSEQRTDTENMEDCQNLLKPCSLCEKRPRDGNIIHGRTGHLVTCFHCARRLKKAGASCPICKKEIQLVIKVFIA

[10] = tested on: MRK-NU-1; test: Growth inhibitory activity, MRK-NU-1; details: Homo sapiens, MRK-nu-1, read-out: GI50 MRK-NU-1
Method: as §2

[11] = tested on: SN40R2; test: Growth inhibitory activity, SN40R2; details: read-out: GI50 SN40R2
Method: as §2

[12] = tested on: A2780 cells; format: cell-based; details: A2780 (p53wt), 0.1, 0.2 and 5 μM, 4 h
[13] = tested on: MDM2; details: read-out: MDM2–p53 IC50; cited from earlier work
[14] = Table 3, n = 3 (b n = 5), read-out: MDM2 IC50
[15] = Table 3, n = 3 (c n = 1), read-out: MDMX IC50

## Cc1cc(C=C2C(=O)NC(=S)NC2=O)c(C)n1-c1sc2c(c1C#N)CCCC2 [Compound 3, 2-(3-((4,6-dioxo-2-thioxotetrahydropyrimidin-5(2H)-ylidene)methyl)-2,5-dimethyl-1H-pyrrol-1-yl)-4,5,6,7-tetrahydrobenzo[b]thiophene-3-carbonitrile]
[1]
  induction of MDM2, p53, and p21 (Western blot): no induction
[2]
  IC50: 12.3 µM
[3]
  GI50: 7.8 ± 0.2 µM
[4]
  induction of MDM2, p53, and p21 (Western blot): clearly visible
[5]
  GI50: 3.9 ± 0.1 µM
[6]
  GI50: 3.9 ± 0.1 µM
[7]
  GI50: 7.7 ± 0.1 µM
[8]
  GI50: 4.4 ± 0.1 µM

## Cc1cc(C=C2C(=O)NC(=S)NC2=O)c(C)n1-c1ccc(Cl)cc1 [Compound 4a]
[2]; read-out: MDM2 IC50
  IC50: 0.72 ± 0.1 µM
[3]
  GI50: 8.4 ± 0.5 µM
[5]
  GI50: 3.4 ± 0.2 µM
[6]
  GI50: 4.4 ± 0.2 µM
[7]
  GI50: 8.3 ± 0.4 µM
[8]
  GI50: 3.3 ± 0.1 µM

## Cc1cc(/C=C2\C(=O)NC(=S)N(c3ccccc3)C2=O)c(C)n1-c1ccc(Cl)cc1 [Compound 4b]
[2]; read-out: MDM2 IC50
  IC50: 3.3 ± 0.7 µM
[3]
  GI50: 9.5 ± 0.3 µM
[5]
  GI50: 8.4 ± 0.2 µM
[6]
  GI50: 9.5 ± 0.1 µM
[7]
  GI50: 9.9 ± 0.1 µM
[8]
  GI50: 7.6 ± 0.1 µM

## O=C1NC(=S)NC(=O)C1=Cc1cc(-c2ccccc2)n(-c2ccc(Cl)cc2)c1-c1ccccc1 [Compound 4c, 5-((1-(4-chlorophenyl)-2,5-diphenyl-1H-pyrrol-3-yl)methylene)-2-thioxodihydropyrimidine-4,6(1H,5H)-dione]
[1]
  induction of MDM2, p53, and p21 (Western blot): no induction
[2]
  IC50: 0.12 ± 0.02 µM
  fold more potent than the comparable 2,5-dimethyl analogues (4a, 4b): 5–10 fold
[2]; read-out: MDM2 IC50
  IC50: 0.11 ± 0.03 µM
[9]; read-out: MDMX IC50
  IC50: 4.2 ± 1.2 µM
[4]
  induction of MDM2, p53, and p21 (Western blot): clearly visible
[10]
  GI50: 2.3 ± 0.3 µM
[11]
  GI50: 2.8 ± 0.6 µM
[8]
  GI50: 2.3 ± 0.2 µM
[12]
  induction of MDM2 and p21 (Western blot): observed

## O=C1NC(=S)N(c2ccccc2)C(=O)/C1=C/c1cc(-c2ccccc2)n(-c2ccc(Cl)cc2)c1-c1ccccc1 [Compound 4d]
[1]
  induction of MDM2, p53, and p21 (Western blot): no induction
[2]
  fold more potent than the comparable 2,5-dimethyl analogues (4a, 4b): 5–10 fold
[2]; read-out: MDM2 IC50
  IC50: 0.23 ± 0.044 µM
[4]
  induction of MDM2, p53, and p21 (Western blot): clearly visible
[12]
  induction of MDM2 and p21 (Western blot): observed

## Cc1ccc(-n2c(C)cc(/C=C3\C(=O)NC(=S)N(c4ccccc4)C3=O)c2C)cc1 [Compound 4i]
[2]; read-out: MDM2 IC50
  IC50: 8.4 ± 0.9 µM
[3]
  GI50: 9.5 ± 0.3 µM
[5]
  GI50: 7.5 ± 0.1 µM
[6]
  GI50: 9 ± 0.4 µM
[7]
  GI50: 9.7 ± 0.2 µM
[8]
  GI50: 7.1 ± 0.1 µM

## N#Cc1ccc(-n2c(-c3ccccc3)cc(C=C3C(=O)NC(=S)NC3=O)c2-c2ccccc2)cc1 [Compound 4r]
[2]; read-out: MDM2 IC50
  IC50: 0.2 ± 0.07 µM
[9]; read-out: MDMX IC50
  IC50: 0.9 ± 0.42 µM
[10]
  GI50: 6.1 ± 0.7 µM
[11]
  GI50: 5.9 ± 0.3 µM
[8]
  GI50: 5.1 ± 0.9 µM

## O=C1NC(=S)NC(=O)C1=Cc1cc(-c2ccccc2)n(-c2ccc([N+](=O)[O-])cc2)c1-c1ccccc1 [Compound 4t]
[2]; read-out: MDM2 IC50
  IC50: 0.17 ± 0.09 µM
[9]; read-out: MDMX IC50
  IC50: 0.63 ± 0.12 µM
[10]
  GI50: 4.9 ± 0.6 µM
[11]
  GI50: 5.2 ± 0.4 µM
[8]
  GI50: 4.7 ± 1 µM

## CN1C(=O)C(=Cc2cc(-c3ccccc3)n(-c3ccc(Cl)cc3)c2-c2ccccc2)C(=O)NC1=S [Compound 4x]
[2]
  IC50: 0.11 ± 0.02 µM
[9]
  IC50: 28 ± 23 µM
[10]
  GI50: 7 ± 1 µM
[11]
  GI50: 6.3 ± 0.4 µM
[8]
  GI50: 5.5 ± 0.6 µM

## CNC(=O)C(=Cc1cc(-c2ccccc2)n(-c2ccc(Cl)cc2)c1-c1ccccc1)C(=O)NC [Compound 10d]
[2]
  fold loss of potency against MDM2–p53: 3 fold
[2]; [14]
  IC50: 7.6 ± 0.4 µM
[9]; [15]
  IC50: 30 µM

## O=C(NCCO)C(=Cc1cc(-c2ccccc2)n(-c2ccc(Cl)cc2)c1-c1ccccc1)C(=O)NCCO [Compound 10e]
[2]
  fold loss of potency against MDM2–p53: 6 fold
[2]; [14]
  IC50: 15 ± 3 µM
[9]; [15]
  IC50: 42 µM

## O=C(O)/C=C/c1cc(-c2ccccc2)n(-c2ccc(Cl)cc2)c1-c1ccccc1 [Compound 10f]
[2]
  activity against MDM2–p53 in words: only weakly active
[2]; [14]
  IC50: 17 ± 3 µM
[9]
  activity against MDMX–p53 in words: inactive
[9]; [15]
  IC50: > 50 µM

## CC(C)(C)c1cc(C=C2C(=O)NC(=S)NC2=O)c(-c2ccccc2)n1-c1ccc(Br)cc1 [Compound 11b]
[2]; read-out: MDM2 IC50
  IC50: 0.76 ± 0.27 µM
[9]
  fold loss of potency for MDMX: > 200 fold
[9]; read-out: MDMX IC50
  IC50: 963 µM

## CC(C)(C)c1cc(C=C2C(=O)NC(=S)NC2=O)c(-c2ccccc2)n1-c1ccc(Cl)cc1 [Compound 11c]
[2]; read-out: MDM2 IC50
  IC50: 1.1 ± 0.7 µM
[9]
  fold loss of potency for MDMX: > 200 fold
[9]; read-out: MDMX IC50
  IC50: 1680 µM

## O=C1NC(=S)NC(=O)C1=Cc1cc(-c2ccccc2)n(-c2ccc(Cl)cc2)c1C1CC1 [Compound 11d]
[2]; read-out: MDM2 IC50
  IC50: 1.6 ± 1.7 µM
[9]; read-out: MDMX IC50
  IC50: 3490 µM

## O=C1NC(=S)NC(=O)C1=Cc1cc(-c2ccccc2)n(-c2ccc(Br)cc2)c1C1CC1 [Compound 11e]
[2]; read-out: MDM2 IC50
  IC50: 1.6 ± 1.6 µM
[9]; read-out: MDMX IC50
  IC50: 3430 µM

## O=C1NC(=S)NC(=O)C1=Cc1cc(C2CC2)n(-c2ccc(Cl)cc2)c1-c1ccccc1 [Compound 11f]
[2]; read-out: MDM2 IC50
  IC50: 2.1 ± 2.7 µM
[9]; read-out: MDMX IC50
  IC50: 4920 µM

## O=C1NC(=S)NC(=O)C1=Cc1cc(C2CC2)n(-c2ccc(Br)cc2)c1-c1ccccc1 [Compound 11g]
[2]; read-out: MDM2 IC50
  IC50: 2.2 ± 2.7 µM
[9]; read-out: MDMX IC50
  IC50: 5320 µM

## CCOc1cc(C(C)(C)C)ccc1C1=N[C@@](C)(c2ccc(Cl)cc2)[C@@](C)(c2ccc(Cl)cc2)N1C(=O)N1CCN(CCCS(C)(=O)=O)CC1 [RG-7112]
[13]
  IC50: 0.012 µM
